The values below come from patent publication US9895340B2, “Fluorinated benzofuran derivatives” (SciFluor Life Sciences, Inc., priority 2012, dated 2018).

The inhibition is the drop in the measured response relative to a control, in per cent.

Where two headings read alike, the source gives them in different places.

Assay type in all cases: cell-based
For series [1], the target named is T1, hCav1.2/β2/α2δ channels (Homo sapiens, UniProt Q13936).
T1 construct: expressed in transfected cells; host or cells: CHO cells
Nature of the series: hCav1.2 L-type calcium channel automated patch clamp. The conditions noted are these: CHO cells, read-out: Cav1.2 ion channel inhibition. The method, then:
(§1) Compounds of the present invention were tested for their anti-arrhythmic activity in a series of in vitro cardiac ion channel assays using cloned human channels expressed in CHO cells or HEK293 cells: • 1. Cloned L-type calcium channels (hCav1.2, encoded by the human CACNA1C gene and coexpressed with the (32 subunit, encoded by the human CACNB2 gene and the α2δ1 subunit encoded by the human CACNA2D1 gene, in CHO cells), responsible for Ica,L, high threshold calcium current. • 2. Cloned hERG potassium channels (encoded by the KCNH2 gene and expressed in human embryonic kidney, HEK293, cells) responsible for IKr. • 3. Cloned hKir2.1 potassium channels (encoded by the human KCNJ2 gene and expressed in HEK293 cells), responsible for IKI, inwardly rectifying potassium current. • 4. Cloned hKvLQT1/hminK potassium channels (encoded by the human KCNQ1 and KCNE1 genes and coexpressed in CHO cells), responsible for IKs, slow delayed rectifier potassium current. • 5. Cloned hKv1.5 potassium channels (encoded by the human KCNA5 gene and expressed in CHO cells), responsible for IKur, ultra-rapid delayed rectifier potassium current. • 6. Cloned hNav1.5 sodium channels (SCN5A gene, expressed in CHO cells). • 7. Cloned hKir3.1/hKir3.4 potassium channels (expressed by the human KCNJ3 and KCNJ5 genes and co-expressed in HEK293 cells) responsible for IACh, inwardly rectifying potassium current.
(§2) One concentration of a compound of the present invention was applied for a […] interval via disposable polyethylene micropipette tips to naïve cells (n≧2, where n=the number cells/concentration). Each solution exchange, performed in quadruplicate, consisted of aspiration and replacement of 45 μL volume of the extracellular well of the Sealchip16. Duration of exposure to the test compound was three minutes. For the hKir3.1/hKir3.4 assay, two concentrations of a compound of the present invention were used and the duration of exposure was 3 minutes.
(§3) In preparation for an automated patch clamp procedure recording session, intracellular solution was loaded into the intracellular compartments of the Sealchip16 or Qplate planar electrode. Cell suspension was pipetted into the extracellular compartments of the Sealchip16 or Qplate planar electrode. After establishment of a whole-cell configuration, membrane currents were recorded using dual-channel patch clamp amplifiers in the PatchXpress® or Qpatch HT® system. Before digitization, the current records were low-pass filtered at one-fifth of the sampling frequency. […]
Onset and steady state block of hCav1.2/β2/α2δ channels were measured using a stimulus voltage pattern consisting of a depolarizing test pulse (duration, 200 ms; amplitude, 10 mV) at 10 s intervals from a −80 mV holding potential. Peak current was measured during the step to 10 mV. […]

The target in series [2] is T2, hKvLQT1/hminK potassium channels (Homo sapiens, UniProt P51787).
T2 construct: expressed in transfected cells; host or cells: CHO cells
Put plainly: hKvLQT1/hminK potassium channel automated patch clamp. As to conditions: CHO cells, read-out: KvLQT ion channel inhibition. Here is the method:
as §1, §2
In preparation for an automated patch clamp procedure recording session, intracellular solution was loaded into the intracellular compartments of the Sealchip16 or Qplate planar electrode. […] After establishment of a whole-cell configuration, membrane currents were recorded using dual-channel patch clamp amplifiers in the PatchXpress® or Qpatch HT® system. […]
Onset and steady state block of hKvLQT1/hminK current was measured using a pulse pattern with fixed amplitudes (depolarization: +40 mV for 2 s; repolarization: −40 mV for 0.5 s) repeated at 15 s intervals from a holding potential of −80 mV. Current amplitude was measured at the end of the step to +40 mV. […] Leakage current was measured after chromanol 293B addition and subtracted from the total membrane current record.
For orientation: Patch clamp records ionic current or voltage across a cell membrane.

Series [3] concerns the target T3, hKir3.1/hKir3.4 potassium channels (Homo sapiens, UniProt P48544+P48549).
T3 construct: expressed in transfected cells; host or cells: HEK293 cells
T3 sequence (P48549 1-501): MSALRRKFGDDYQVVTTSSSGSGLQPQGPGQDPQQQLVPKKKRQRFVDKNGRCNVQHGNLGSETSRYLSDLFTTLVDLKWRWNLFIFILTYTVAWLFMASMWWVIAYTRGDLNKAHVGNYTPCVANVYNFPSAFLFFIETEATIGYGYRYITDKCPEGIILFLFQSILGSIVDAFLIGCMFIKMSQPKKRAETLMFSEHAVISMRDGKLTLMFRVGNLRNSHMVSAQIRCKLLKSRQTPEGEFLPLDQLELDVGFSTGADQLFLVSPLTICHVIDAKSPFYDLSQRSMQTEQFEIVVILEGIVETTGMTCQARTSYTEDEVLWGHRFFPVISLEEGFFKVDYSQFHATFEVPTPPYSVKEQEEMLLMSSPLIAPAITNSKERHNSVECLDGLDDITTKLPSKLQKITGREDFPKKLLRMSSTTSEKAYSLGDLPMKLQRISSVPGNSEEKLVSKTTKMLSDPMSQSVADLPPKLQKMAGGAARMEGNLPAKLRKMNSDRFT
T3 sequence (P48544 1-419): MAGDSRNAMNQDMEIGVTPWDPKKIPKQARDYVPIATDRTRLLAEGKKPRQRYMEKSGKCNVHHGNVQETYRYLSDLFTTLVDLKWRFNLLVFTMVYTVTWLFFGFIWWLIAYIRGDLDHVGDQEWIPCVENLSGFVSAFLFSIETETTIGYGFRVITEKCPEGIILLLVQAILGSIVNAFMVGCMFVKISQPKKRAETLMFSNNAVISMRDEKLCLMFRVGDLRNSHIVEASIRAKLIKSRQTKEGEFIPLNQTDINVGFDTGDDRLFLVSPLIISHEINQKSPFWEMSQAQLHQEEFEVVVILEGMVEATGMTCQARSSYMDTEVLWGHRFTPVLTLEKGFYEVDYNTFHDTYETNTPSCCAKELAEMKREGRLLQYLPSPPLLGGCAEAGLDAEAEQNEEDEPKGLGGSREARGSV
Nature of the series: hKir3.1/hKir3.4 potassium channel automated patch clamp. The conditions noted are these: HEK293 cells; for inhibition at 1 µM: read-out: K(ach) @ 1 μM ion channel inhibition; for inhibition at 10 µM: read-out: K(ach) ion channel inhibition. Here is the method: as §1, §2
(§4) In preparation for an automated patch clamp procedure recording session, intracellular solution was loaded into the intracellular compartments of the Sealchip16 or Qplate planar electrode. Cell suspension was pipetted into the extracellular compartments of the Sealchip16 or Qplate planar electrode. After establishment of a whole-cell configuration, membrane currents were recorded using dual-channel patch clamp amplifiers in the PatchXpress® or Qpatch HT® system. Before digitization, the current records were low-pass filtered at one-fifth of the sampling frequency.
(§5) Valid whole-call recordings met the following criteria: • 1. Membrane resistance (Rm)≧200 MΩ • 2. Leak current≦25% channel current. hCav1.2 Test Procedure
The in vitro effects of the compounds of the present invention were evaluated at room temperature using the PatchXpress (Model 7000A, Molecular Devices, Union City, Calif.), an automated parallel patch clamp system.

The target of series [4] is T4, hKv1.5 potassium channels (Homo sapiens, UniProt P22460).
T4 construct: expressed in transfected cells; host or cells: CHO cells
Put plainly: hKv1.5 potassium channel automated patch clamp. The conditions noted are these: CHO cells, read-out: Kv1.5 ion channel inhibition. The method, then:
as §1, §2, §3
Onset and steady state block of hKv1.5 current was measured using a pulse pattern with fixed amplitudes (depolarization: +20 mV amplitude, 300 ms duration) repeated at 10 s intervals from a holding potential of −80 mV. Current amplitude was measured at the end of the step to +20 mV.

Series [5] concerns the target T5, hNav1.5 sodium channels (Homo sapiens, UniProt Q14524).
T5 construct: expressed in transfected cells; host or cells: CHO cells
Put plainly: hNav1.5 sodium channel automated patch clamp. As to conditions: CHO cells. Here is the method: as §1, §2, §4, §5
Onset and steady-state block of hNav1.5 current was measured using double pulse pattern consisting of a series of two depolarizing test pulses to −15 mV. From a holding potential of −80 mV, an initial hyperpolarizing conditioning pre-pulse (−120 mV amplitude, 200 ms duration,) was followed immediately by the first depolarizing test pulse to −15 mV (200 ms duration). This was followed by a hyperpolarizing conditioning inter-pulse to −80 mV (200 ms duration) and then a second depolarizing test pulse to −15 mV for 20 ms. The pulse pattern was repeated at 10 s intervals and peak current amplitudes at both test pulses were measured.

Series [6] deals with T6, hKir2.1 potassium channels (Homo sapiens, UniProt P63252).
T6 construct: expressed in transfected cells; host or cells: HEK293 cells
T6 sequence (P63252 1-427): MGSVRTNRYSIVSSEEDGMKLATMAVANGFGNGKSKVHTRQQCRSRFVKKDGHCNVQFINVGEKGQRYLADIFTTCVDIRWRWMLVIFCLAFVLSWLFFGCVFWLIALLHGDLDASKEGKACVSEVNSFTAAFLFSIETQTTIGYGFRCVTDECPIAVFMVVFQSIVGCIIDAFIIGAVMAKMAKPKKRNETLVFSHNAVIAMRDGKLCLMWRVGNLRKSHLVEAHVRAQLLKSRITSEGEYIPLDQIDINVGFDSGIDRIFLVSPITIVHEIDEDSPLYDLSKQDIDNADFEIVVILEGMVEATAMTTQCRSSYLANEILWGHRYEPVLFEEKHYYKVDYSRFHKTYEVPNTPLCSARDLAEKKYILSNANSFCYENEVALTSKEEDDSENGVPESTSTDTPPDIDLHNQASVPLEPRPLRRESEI
Nature of the series: hKir2.1 potassium channel automated patch clamp. As to conditions: HEK293 cells, read-out: Kir2.1 ion channel inhibition. The method, then: as §1, §2
In preparation for an automated patch clamp procedure recording session, intracellular solution was loaded into the intracellular compartments of the Sealchip16 or Qplate planar electrode. Cell suspension was pipetted into the extracellular compartments of the Sealchip16 or Qplate planar electrode. After establishment of a whole-cell configuration, membrane currents were recorded using dual-channel patch clamp amplifiers in the PatchXpress® or Qpatch HT® system. […]
Onset and steady state block of hKir2.1 current was measured using a pulse pattern with fixed amplitudes (hyperpolarization: −110 mV amplitude, 300 ms duration) repeated at 10 s intervals from a holding potential of −70 mV. Current amplitude was measured at the end of the step to −110 mV.

For series [7], the target named is T7, hERG potassium channel (KCNH2, IKr) (Homo sapiens, UniProt Q12809).
T7 construct: expressed in transfected cells; host or cells: HEK293 cells
Put plainly: hERG potassium channel automated patch clamp. As to conditions: HEK293 cells expressing cloned hERG potassium channels, read-out: hERG ion channel inhibition. A general note: Block of hERG is tested as a sign of cardiac risk.
Method: One concentration of a compound of the present invention was applied for a five-minute interval via disposable polyethylene micropipette tips to naïve cells (n≧2, where n=the number cells/concentration). Each solution exchange, performed in quadruplicate, consisted of aspiration and replacement of 45 μL volume of the extracellular well of the Sealchip16. Duration of exposure to the test compound was three minutes.
Onset and block of hERG current was measured using a stimulus voltage pattern consisting of a 500 ms prepulse to −40 mV (leakage subtraction), a 2-second activating pulse to +40 mV, followed by a 2-second test pulse to −40 mV. Leakage current was calculated from the current amplitude evoked by the prepulse and subtracted from the total membrane current record.

Where [8] appears, read: phasic block, read-out: Nav1.5 phasic ion channel inhibition.
Where [9] appears, read: tonic block, read-out: Nav1.5 tonic ion channel inhibition.

T5 sequence (Q14524 whole entry): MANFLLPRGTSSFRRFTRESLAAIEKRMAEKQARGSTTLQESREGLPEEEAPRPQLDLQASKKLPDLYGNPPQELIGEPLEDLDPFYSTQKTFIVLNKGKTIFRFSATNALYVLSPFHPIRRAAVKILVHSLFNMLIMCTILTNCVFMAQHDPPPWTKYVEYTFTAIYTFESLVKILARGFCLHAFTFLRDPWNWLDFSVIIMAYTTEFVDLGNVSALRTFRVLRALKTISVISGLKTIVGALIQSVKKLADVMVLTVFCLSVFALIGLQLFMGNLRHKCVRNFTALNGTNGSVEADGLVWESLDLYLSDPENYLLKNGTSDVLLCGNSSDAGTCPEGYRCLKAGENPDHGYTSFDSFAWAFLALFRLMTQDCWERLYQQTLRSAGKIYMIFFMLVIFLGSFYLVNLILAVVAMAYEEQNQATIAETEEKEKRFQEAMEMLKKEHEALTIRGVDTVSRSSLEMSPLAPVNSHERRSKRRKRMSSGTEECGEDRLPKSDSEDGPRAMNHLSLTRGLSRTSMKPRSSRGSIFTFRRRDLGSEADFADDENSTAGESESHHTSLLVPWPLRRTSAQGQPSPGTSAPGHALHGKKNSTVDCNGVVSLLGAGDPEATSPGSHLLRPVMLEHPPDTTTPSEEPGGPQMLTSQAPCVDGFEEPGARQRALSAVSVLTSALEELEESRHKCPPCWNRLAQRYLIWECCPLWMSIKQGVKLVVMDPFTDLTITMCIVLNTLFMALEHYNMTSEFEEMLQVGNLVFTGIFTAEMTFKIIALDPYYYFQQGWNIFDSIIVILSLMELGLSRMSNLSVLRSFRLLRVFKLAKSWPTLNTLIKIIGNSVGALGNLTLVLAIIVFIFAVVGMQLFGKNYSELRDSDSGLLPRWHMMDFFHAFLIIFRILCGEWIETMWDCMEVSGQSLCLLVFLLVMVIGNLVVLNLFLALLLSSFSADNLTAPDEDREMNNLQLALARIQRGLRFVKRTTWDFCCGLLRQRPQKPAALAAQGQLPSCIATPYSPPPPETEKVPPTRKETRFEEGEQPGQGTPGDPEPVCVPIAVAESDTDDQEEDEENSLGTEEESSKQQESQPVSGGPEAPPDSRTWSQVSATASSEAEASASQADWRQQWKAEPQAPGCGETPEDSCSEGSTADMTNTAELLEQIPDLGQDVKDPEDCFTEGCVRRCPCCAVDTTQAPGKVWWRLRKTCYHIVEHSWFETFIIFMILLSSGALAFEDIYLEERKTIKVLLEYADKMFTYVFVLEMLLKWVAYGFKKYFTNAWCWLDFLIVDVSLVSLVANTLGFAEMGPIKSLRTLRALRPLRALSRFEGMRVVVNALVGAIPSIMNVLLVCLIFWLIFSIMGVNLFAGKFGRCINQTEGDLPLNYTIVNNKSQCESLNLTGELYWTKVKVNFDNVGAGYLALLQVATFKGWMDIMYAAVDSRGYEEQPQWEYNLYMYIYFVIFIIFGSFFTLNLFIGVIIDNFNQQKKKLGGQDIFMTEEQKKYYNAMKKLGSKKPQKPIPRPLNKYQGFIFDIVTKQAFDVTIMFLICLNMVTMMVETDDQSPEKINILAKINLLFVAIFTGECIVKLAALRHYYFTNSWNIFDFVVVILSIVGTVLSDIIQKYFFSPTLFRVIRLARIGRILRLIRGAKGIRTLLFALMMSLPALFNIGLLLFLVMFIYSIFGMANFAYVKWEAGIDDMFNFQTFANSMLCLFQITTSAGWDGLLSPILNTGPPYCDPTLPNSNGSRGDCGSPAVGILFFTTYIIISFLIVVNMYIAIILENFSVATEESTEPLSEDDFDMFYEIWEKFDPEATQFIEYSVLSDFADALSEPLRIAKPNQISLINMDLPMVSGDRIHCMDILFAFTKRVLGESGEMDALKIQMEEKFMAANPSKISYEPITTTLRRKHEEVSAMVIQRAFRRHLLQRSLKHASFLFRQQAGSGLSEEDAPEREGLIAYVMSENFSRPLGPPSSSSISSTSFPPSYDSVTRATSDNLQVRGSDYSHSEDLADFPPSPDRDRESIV
T4 sequence (P22460 whole entry): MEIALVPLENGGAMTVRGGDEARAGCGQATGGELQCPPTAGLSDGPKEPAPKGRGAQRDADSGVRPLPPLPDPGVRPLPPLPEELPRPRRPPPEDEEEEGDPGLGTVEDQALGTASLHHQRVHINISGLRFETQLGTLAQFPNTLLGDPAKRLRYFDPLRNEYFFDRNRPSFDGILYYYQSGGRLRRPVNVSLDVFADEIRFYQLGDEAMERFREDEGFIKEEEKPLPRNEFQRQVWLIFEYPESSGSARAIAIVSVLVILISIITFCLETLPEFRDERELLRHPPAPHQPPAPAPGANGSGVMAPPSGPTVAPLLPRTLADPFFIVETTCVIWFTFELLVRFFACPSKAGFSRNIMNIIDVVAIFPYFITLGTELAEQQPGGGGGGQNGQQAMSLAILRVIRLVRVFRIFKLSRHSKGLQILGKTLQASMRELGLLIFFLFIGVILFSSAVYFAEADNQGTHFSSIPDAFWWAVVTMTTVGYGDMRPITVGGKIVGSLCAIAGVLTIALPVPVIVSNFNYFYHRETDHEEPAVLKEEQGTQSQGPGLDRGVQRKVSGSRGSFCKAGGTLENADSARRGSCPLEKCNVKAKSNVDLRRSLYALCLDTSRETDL
T7 sequence (Q12809 whole entry): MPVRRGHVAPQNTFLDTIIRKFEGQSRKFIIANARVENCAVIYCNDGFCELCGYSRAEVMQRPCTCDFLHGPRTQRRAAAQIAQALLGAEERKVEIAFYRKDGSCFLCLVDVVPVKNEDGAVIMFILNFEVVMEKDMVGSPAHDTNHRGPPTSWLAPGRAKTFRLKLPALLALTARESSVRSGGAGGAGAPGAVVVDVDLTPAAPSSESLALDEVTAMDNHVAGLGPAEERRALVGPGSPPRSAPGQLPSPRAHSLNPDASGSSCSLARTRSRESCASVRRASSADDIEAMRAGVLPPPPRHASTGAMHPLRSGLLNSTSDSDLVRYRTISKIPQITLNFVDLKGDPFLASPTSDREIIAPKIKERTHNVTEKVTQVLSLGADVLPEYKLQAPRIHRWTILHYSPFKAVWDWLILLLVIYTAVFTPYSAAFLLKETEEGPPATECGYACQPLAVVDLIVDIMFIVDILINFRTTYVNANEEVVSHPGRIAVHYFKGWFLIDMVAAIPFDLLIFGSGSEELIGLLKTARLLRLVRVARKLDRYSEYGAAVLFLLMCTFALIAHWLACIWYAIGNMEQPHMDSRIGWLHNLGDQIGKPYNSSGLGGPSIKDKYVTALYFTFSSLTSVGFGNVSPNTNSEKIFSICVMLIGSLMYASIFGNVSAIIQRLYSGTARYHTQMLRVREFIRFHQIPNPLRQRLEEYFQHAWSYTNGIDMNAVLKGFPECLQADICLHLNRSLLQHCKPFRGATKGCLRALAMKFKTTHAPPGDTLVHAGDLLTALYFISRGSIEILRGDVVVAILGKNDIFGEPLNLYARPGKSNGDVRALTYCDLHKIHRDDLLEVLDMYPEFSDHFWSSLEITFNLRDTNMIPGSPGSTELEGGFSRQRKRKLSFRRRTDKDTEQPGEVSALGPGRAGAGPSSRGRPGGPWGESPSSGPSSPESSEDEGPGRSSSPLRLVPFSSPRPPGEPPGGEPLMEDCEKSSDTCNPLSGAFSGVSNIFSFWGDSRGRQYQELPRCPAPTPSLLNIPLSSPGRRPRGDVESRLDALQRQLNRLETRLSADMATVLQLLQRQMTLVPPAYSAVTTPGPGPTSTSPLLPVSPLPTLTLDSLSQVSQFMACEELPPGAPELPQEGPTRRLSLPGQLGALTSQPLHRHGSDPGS

Turning to `CCCCc1oc2ccccc2c1C(=O)c1cc(I)c(OCCN(CC)CC)c(I)c1` [Amiodarone, 2-n-butyl 3-[4-(2-diethylaminoethoxy) 3,5-diiodobenzoyl] benzofuran, reference compound], the inhibition at 10 µM is 7.7% in series [1]; -0.6% in series [2]; 23% in series [3]; 0.7% in series [4]; 44% in series [5] (setting [8]); 6.8% in series [5] (setting [9]). For the same compound, in series [6], the inhibition at 10 µM is 0.9%. The inhibition at 1 µM in series [3] came out at 4.5%.
As to `CCCCc1oc2ccccc2c1C(=O)c1cc(C(F)(F)F)c(OCCN(CC)CC)c(C(F)(F)F)c1` [Compound 1, (2-butylbenzofuran-3-yl)(4-(2-(diethylamino)ethoxy)-3,5-bis(trifluoromethyl)phenyl)methanone], the inhibition at 10 µM in series [1] was 101%; in series [2], 49%; in series [3], 49%; in series [4] it was 54%; in series [5] (setting [8]), 26%; in series [5] (setting [9]), 11.5%. For the same compound, in series [6], the inhibition at 10 µM turned out to be 0.3%. The inhibition at 3 min, 10 µM in series [7] is 55%. In addition, the inhibition at 1 µM in series [3] worked out at 16%.
With `CCCCc1oc2ccccc2c1C(=O)c1cc(I)c(OCCN(CC)CC)c(C(F)(F)F)c1` [Compound 2, (2-butylbenzofuran-3-yl)(4-(2-(diethylamino)ethoxy)-3-iodo-5-(trifluoromethyl)phenyl) methanone], the inhibition at 10 µM was found to be 81% in series [1]; 2.5% in series [2]; 4.6% in series [3]; 21% in series [4]; 44% in series [5] (setting [8]); 23% in series [5] (setting [9]). Further, the inhibition at 10 µM in series [6] worked out at 2.7%. In addition, in series [7], the inhibition at 3 min, 10 µM was 75%. The inhibition at 1 µM in series [3] was 1.4%.
`CCCCc1oc2ccccc2c1C(=O)c1ccc(OCCN(CC)CC)c(C(F)(F)F)c1` [Compound 3, (2-butylbenzofuran-3-yl)(4-(2-(diethylamino)ethoxy)-3-(trifluoromethyl)phenyl)methanone]: the inhibition at 10 µM in series [1] was 2%; in series [2] it was 8.4%; in series [3], 11%; in series [4], 25%; in series [5] (setting [8]), 86%; in series [5] (setting [9]) it was 48%. Further, the inhibition at 10 µM in series [6] was determined as 9.7%. For the same compound, the inhibition at 3 min, 10 µM in series [7] came out at 74%. The inhibition at 1 µM in series [3] came to 2.1%.
